From article PMC7113757 (Antiviral Research, 2014)
pEC50: −log10 of the molar value.

How the values were obtained:
[1] = tested on: SAFV; test: Growth curves of SAFV; format: cell-based; settings: 50 μM
[2] = target: T1, CVB3 3C^pro (Coxsackievirus B3, UniProt P03313); test: Western blot of fusion protein cleavage in COS-1 cells; format: cell-based; settings: 50 μM, pBind-3Cpro(CVB3)-VP16
[3] = target: T2, HPeV 3C^pro (Human parechovirus 1, UniProt Q66578); format: cell-based
T2 sequence (Q66578 1518-1711 limits assumed): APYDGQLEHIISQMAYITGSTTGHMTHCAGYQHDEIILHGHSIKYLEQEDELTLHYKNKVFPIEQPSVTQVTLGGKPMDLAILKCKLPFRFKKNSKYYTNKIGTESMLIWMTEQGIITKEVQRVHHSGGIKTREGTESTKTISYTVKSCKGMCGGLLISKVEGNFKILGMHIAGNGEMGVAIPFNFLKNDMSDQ

[4] = target: T3, EMCV 3C^pro (Encephalomyocarditis virus, UniProt P03304); format: cell-based
T3 sequence (P03304 1626-1830 limits assumed): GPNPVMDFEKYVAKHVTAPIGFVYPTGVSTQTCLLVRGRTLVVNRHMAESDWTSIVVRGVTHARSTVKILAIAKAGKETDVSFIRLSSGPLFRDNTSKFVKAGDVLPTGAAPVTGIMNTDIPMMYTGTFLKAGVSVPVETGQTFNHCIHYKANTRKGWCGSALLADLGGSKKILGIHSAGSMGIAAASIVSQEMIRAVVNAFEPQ

[5] = tested on: EMCV; test: Growth curves of EMCV; format: cell-based; settings: 50 μM
[6] = target: T1, CVB3 3C^pro; test: Cell-based protease assay with EGFP read-out; settings: 50 μM, COS-1 cells, imaged after 2 days
[7] = target: T1, CVB3 3C^pro; test: Cell-based protease assay
[8] = target: HRV14 3C^pro (Human rhinovirus 14, UniProt P03303); format: cell-based
[9] = target: PV 3C^pro (Poliovirus type 1, UniProt P03300); format: cell-based
[10] = tested on: HAV strain HM175; settings: ref Debing et al., 2013; cited from earlier work
[11] = target: T4, SAFV 3C^pro (Saffold virus, UniProt C0MHL9); format: cell-based
T4 sequence (C0MHL9 1618-1834 limits assumed): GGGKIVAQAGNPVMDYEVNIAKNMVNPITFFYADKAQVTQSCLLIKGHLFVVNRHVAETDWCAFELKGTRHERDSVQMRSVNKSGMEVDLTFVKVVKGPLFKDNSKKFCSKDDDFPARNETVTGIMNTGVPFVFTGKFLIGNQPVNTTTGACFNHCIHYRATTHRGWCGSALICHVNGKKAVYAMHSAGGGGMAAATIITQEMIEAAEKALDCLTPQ

[12] = target: T5, HAV 3C^pro (Human hepatitis A virus genotype IB, UniProt P08617); format: cell-based
T5 sequence (P08617 1520-1738 limits assumed): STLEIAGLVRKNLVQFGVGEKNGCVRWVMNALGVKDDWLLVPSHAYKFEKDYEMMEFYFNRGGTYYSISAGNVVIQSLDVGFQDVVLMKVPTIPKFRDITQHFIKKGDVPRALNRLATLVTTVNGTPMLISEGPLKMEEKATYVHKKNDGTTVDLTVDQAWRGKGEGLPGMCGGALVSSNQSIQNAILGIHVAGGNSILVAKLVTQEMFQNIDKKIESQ

[13] = target: EV71 3C^pro (Human enterovirus 71, UniProt Q66478); format: cell-based
[14] = target: FMDV 3C^pro (Foot-and-mouth disease virus serotype O, UniProt P03305); test: cell-based; format: cell-based

| Structure (SMILES) | activity against SAFV in growth curves [1] | cleavage of fusion protein (Western blot) [2] | effect on reporter activity, HPeV 3Cpro construct [3] | effect on reporter activity, EMCV 3Cpro construct [4] | activity against EMCV in growth curves [5] | GFP signal from pG5EGFP reporter [6] | pEC50 [7] | FLuc expression upon treatment, CVB3 3Cpro construct ([7]; 50 μM, COS-1 cells) | increase in FLuc levels compared to untreated ([7]; 50 μM, COS-1 cells, CVB3 3Cpro construct) | FLuc expression upon treatment, HRV14 3Cpro construct [8] | FLuc expression upon treatment, PV 3Cpro construct [9] | effect on HAV replication, strain HM175 [10] | effect on reporter activity, SAFV 3Cpro construct [11] | effect on reporter activity, HAV 3Cpro construct [12] | FLuc expression upon treatment, EV71 3Cpro construct [13] | FLuc expression upon treatment, FMDV 3Cpro construct [14] | pEC50 [14] | inhibitory activity towards FMDV 3Cpro [14] |
| --- | --- | --- | --- | --- | --- | --- | --- | --- | --- | --- | --- | --- | --- | --- | --- | --- | --- | --- |
| CCOC(=O)/C=C/[C@H](C[C@@H]1CCNC1=O)NC(=O)[C@@H](CC(=O)[C@@H](NC(=O)c1cc(C)on1)C(C)C)Cc1ccc(F)cc1 [AG7088] | no significant activity | not completely blocked | no effect | no effect | no significant activity | GFP was visible | 5.96 | induced | ~40 fold | induced | induced | no effect | no effect | no effect | induced | increased | – | – |
| C#CC[C@@H](C(=O)N[C@H](/C=C/C(=O)OCC)C[C@@H]1CCNC1=O)n1cccc(NC(=O)c2cc(C)on2)c1=O [AG7404] | – | – | – | – | – | – | 5.44 | – | – | – | – | – | – | – | – | – | < 4.00 | little or no inhibitory activity |
